These results are taken from US11053234B2 (GlaxoSmithKline Intellectual Property Development Limited, priority 2016, dated 2021).

The target of this assay is T1, haematopoietic prostaglandin D synthase (H-PGDS) (Homo sapiens, UniProt O60760).
T1 construct: Full length human H-PGDS cDNA (Invitrogen Ultimate ORF 10H13026) was amplified by PCR; 6-His (N); TEV protease cleavage site (N); made in house; host or cells: E. coli BL21 (DE3*), vector pET22b+
Nature of the assay: H-PGDS RapidFire high throughput mass spectrometry assay (conversion of PGH2 to PGD2). The format is biochemical. The conditions noted are these: 10 nM H-PGDS, PGH2 formed in situ by COX-2 from arachidonic acid; read-out: Potency Range (mean pIC50) (converted). Here is the method:
H-PGDS RapidFire™ High Throughput Mass Spectrometry Assay
The H-PGDS RapidFire™ mass spectrometric assay monitors conversion of prostaglandin H2 (PGH2) to prostaglandin D2 (PGD2) by haematopoietic prostaglandin D synthase (H-PGDS). In the assay format described here, the substrate (PGH2) is formed in situ by the action of cyclooxygenase-2 on arachidonic acid. This first step is set up to be fast, and generates a burst of PGH2 at ˜10 μM. The PGH2 is then further converted to PGD2 by the H-PGDS enzyme. […] Plates are then read on the RapidFire™ high throughput solid phase extraction system (Agilent) which incorporates a solid phase extraction step coupled to a triple quadrupole mass spectrometer (AB SCIEX). Relative levels of PGD2 and PGF2α, which acts as a surrogate for substrate, are measured and a percent conversion calculated.
Expression and Purification of H-PGDS Protein
Full length human H-PGDS cDNA (Invitrogen Ultimate ORF 10H13026) was amplified by PCR with the addition of a 5′ 6-His tag and TEV protease cleavage site. The PCR product was digested with Ndel and Xhol and ligated into pET22b+ (Merck Novagen®). Expression was carried out in E. coli strain BL21 (DE3*) using auto-induction Overnight Express™ Instant TB medium (Merck Novagen®) supplemented with 1% glycerol. The culture was first grown at 37° C. and the temperature was reduced to 25° C. when OD600 reached 2.0. Cells were harvested by centrifugation after a further 18 hr. 10 g of E. coli cell pellet was suspended to a total volume of 80 mL in lysis buffer (20 mM Tris-Cl pH 7.5, 300 mM NaCl, 20 mM imidazole, 5 mM β-mercaptoethanol, 10% glycerol). 1 mg/mL protease inhibitors (Protease Inhibitor Cocktail Set III, Merck Calbiochem®) and 1 mg/mL lysozyme were added to the cell suspension. The suspension was then sonicated for 5 min (UltraSonic Processor VCX 750, Cole-Parmer Instrument Co.) with a micro probe (50% amplitude, 10 sec on/off) and then centrifuged at 100,000 g for 90 min (at 4° C.). The supernatant was loaded onto a Ni-NTA HiTrap column (5 mL, GE Healthcare, pre-equilibrated in lysis buffer). The column was washed with 10 column volumes of lysis buffer and eluted with lysis buffer containing 500 mM imidazole. The pooled protein peak fractions were concentrated using a 10 kDa centrifugal filter at 3500 g and 4° C. (Amicon Ultra-15 centrifugal filter unit with Ultracel-10 membrane from Millipore). Further purification of the concentrated protein was carried out using gel filtration chromatography on a HiLoad 26/600 Superdex 75 preparative grade column (GE Healthcare Life Sciences) using 50 mM Tris pH 7.5, 50 mM NaCl, 1 mM dithiothreitol, 1 mM MgCl2. Fractions containing the protein were pooled, concentrated as described above, and stored at −80° C.
Expression and Purification of Cyclooxygenase-2 (COX-2) Protein
The full length human COX-2 gene (accession number L15326) was amplified by PCR to generate an EcoRI-HindIII fragment containing an in-frame FLAG tag. This was subcloned into pFastBac 1 (Invitrogen). The COX2 FLAG plasmid was recombined into the baculovirus genome according to the BAC-to-BAC protocol described by Invitrogen. Transfection into Spodoptera frugiperda (Sf9) insect cells was performed using Cellfectin (Invitrogen), according to the manufacturer's protocol. […] Cells were harvested using a continuous feed centrifuge run at 2500 g at a rate of approximately 2 L/min with cooling. The resultant cell slurry was re-centrifuged in pots (2500 g, 20 min, 4° C.) and the cell paste was stored at −80° C. […] The suspension was sonicated in 500 mL batches for 8×5 seconds at 10 u amplitude with the medium tip of an MSE probe sonicator and subsequently incubated at 4° C. for 90 min with gentle stirring. The lysate was centrifuged at 12000 rpm for 45 min at 4° C. in a Sorvall SLA1500 rotor. The supernatant (1400 mL) was added to 420 mL of 20 mM Tris-Cl pH 7.4, 150 mM NaCl, 0.1 mM EDTA to reduce the concentration of n-octyl-6-D-glucopyranoside to 1% w/v.

T1 sequence (O60760 whole entry): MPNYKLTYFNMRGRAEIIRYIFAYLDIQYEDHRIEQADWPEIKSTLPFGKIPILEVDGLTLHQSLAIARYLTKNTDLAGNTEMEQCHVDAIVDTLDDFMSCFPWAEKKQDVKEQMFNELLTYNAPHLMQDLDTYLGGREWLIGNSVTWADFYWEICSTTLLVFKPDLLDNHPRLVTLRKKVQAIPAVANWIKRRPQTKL

As to `O=C(NC1CCN(c2ncc(F)cn2)CC1)[C@H]1C[C@H](Oc2cc(F)cc3scnc23)C1` [Example 117, (trans)-3-((6-Fluorobenzo[d]thiazol-4-yl)oxy)-N-(1-(5-fluoropyrimidin-2-yl)piperidin-4-yl)cyclobutanecarboxamide], the IC50 is 0.01 to 0.0794 µM.

`CCOC(=O)c1csc(NC(=O)[C@H]2C[C@H](Oc3cccc4cccnc34)C2)n1` [Example 192, Ethyl 2-((trans)-3-(quinolin-8-yloxy)cyclobutanecarboxamido)thiazole-4-carboxylate]: the IC50 was less than 0.01 µM.

For `O=C(NC1CN(c2ccnc(Cl)n2)C1)N1CC(Oc2cc(F)cc3scnc23)C1` [Example 130, N-(1-(2-Chloropyrimidin-4-yl)azetidin-3-yl)-3-((6-fluorobenzo[d]thiazol-4-yl)oxy)azetidine-1-carboxamide], the IC50 is 0.01 to 0.0794 µM. Regarding `Cn1nnnc1NC(=O)[C@H]1C[C@H](Oc2cc(F)ccc2OC(F)F)C1` [Example 3, (trans)-3-(2-(Difluoromethoxy)-5-fluorophenoxy)-N-(1-methyl-1H-tetrazol-5-yl)cyclobutanecarboxamide], the IC50 is 0.1 to 1 µM. For `CC(C)(O)[C@H]1CC[C@H](NC(=O)[C@H]2C[C@H](Oc3cc(Cl)ccc3Cl)C2)CC1` [Example 257, (trans)-3-(2,5-Dichlorophenoxy)-N-((trans)-4-(2-hydroxypropan-2-yl)cyclohexyl)cyclobutanecarboxamide] the value was 0.1 to 1 µM; for `CC(C)(C)c1csc(NC(=O)[C@H]2C[C@H](Oc3cccc4cccnc34)C2)n1` [Example 211, (trans)-N-(4-(tert-Butyl)thiazol-2-yl)-3-(quinolin-8-yloxy)cyclobutanecarboxamide], 0.01 to 0.0794 µM; for `CC(N[C@H]1CC[C@H](NC(=O)[C@H]2C[C@H](Oc3cc(F)cc4scnc34)C2)CC1)C(F)F` (mixture of isomers) [Example 121, Racemic (trans)-N-((trans)-4-((1,1-Difluoropropan-2-yl)amino)cyclohexyl)-3-((6-fluorobenzo[d]thiazol-4-yl)oxy)cyclobutanecarboxamide], 0.01 to 0.0794 µM. As for `O=C(Nc1nccs1)[C@H]1C[C@H](Nc2cccc3cccnc23)C1` [Example 221, (trans)-3-(Quinolin-8-ylamino)-N-(thiazol-2-yl)cyclobutanecarboxamide], the figure is 0.1 to 1 µM; as for `COc1ccc(F)cc1O[C@H]1C[C@H](C(=O)NC2CN(c3ncc(C#N)s3)C2)C1` [Example 147, (trans)-N-(1-(5-Cyanothiazol-2-yl)azetidin-3-yl)-3-(5-fluoro-2-methoxyphenoxy)cyclobutanecarboxamide], 0.01 to 0.0794 µM; as for `CCn1nnnc1NC(=O)N1CC(Oc2cccc3scnc23)C1` [Example 325, 3-(Benzo[d]thiazol-4-yloxy)-N-(1-ethyl-1H-tetrazol-5-yl)azetidine-1-carboxamide], 0.1 to 1 µM. For `O=C(N[C@H]1CC[C@H](OCC(O)C2CC2)CC1)[C@H]1C[C@H](Oc2cc(F)ccc2OC(F)F)C1` (mixture of isomers) [Example 9, Racemic (trans)-N-((trans)-4-(2-Cyclopropyl-2-hydroxyethoxy)cyclohexyl)-3-(2-(difluoromethoxy)-5-fluorophenoxy)cyclobutanecarboxamide] the value was 0.01 to 0.0794 µM; for `CS(=O)(=O)c1ccc(NC(=O)N2CC(Oc3cccc4scnc34)C2)c(F)c1` [Example 308, 3-(Benzo[d]thiazol-4-yloxy)-N-(2-fluoro-4-(methylsulfonyl)phenyl)azetidine-1-carboxamide], 0.01 to 0.0794 µM; for `CC(C)(O)CO[C@H]1CC[C@H](NC(=O)[C@H]2C[C@H](Oc3cc(F)ccc3OC(F)F)C2)CC1` [Example 33, (trans)-3-(2-(Difluoromethoxy)-5-fluorophenoxy)-N-((trans)-4-(2-hydroxy-2-methylpropoxy)cyclohexyl)cyclobutanecarboxamide], 0.01 to 0.0794 µM. With `COc1ccc(F)cc1O[C@H]1C[C@H](C(=O)Nc2cccc(C#N)n2)C1` [Example 159, (trans)-N-(6-Cyanopyridin-2-yl)-3-(5-fluoro-2-methoxyphenoxy)cyclobutanecarboxamide], the IC50 was 0.01 to 0.0794 µM.

For `CC(O)(CO[C@H]1CC[C@H](NC(=O)N2CC(Oc3cccc4scnc34)C2)CC1)C1CC1` (mixture of isomers) [Example 100, Racemic 3-(Benzo[d]thiazol-4-yloxy)-N-((trans)-4-(2-cyclopropyl-2-hydroxypropoxy)cyclohexyl)azetidine-1-carboxamide], the IC50 was 0.01 to 0.0794 µM. For `O=C(N[C@H]1CC[C@H](N2CCCS2(=O)=O)CC1)N1CC(Oc2cccc3scnc23)C1` [Example 101, 3-(Benzo[d]thiazol-4-yloxy)-N-((trans)-4-(1,1-dioxidoisothiazolidin-2-yl)cyclohexyl)azetidine-1-carboxamide] the value was 0.01 to 0.0794 µM; for `COc1ccc(F)cc1O[C@H]1C[C@H](C(=O)NC2CCN(c3ncc(C#N)s3)C2)C1` (mixture of isomers) [Example 144, Racemic (trans)-N-(1-(5-Cyanothiazol-2-yl)pyrrolidin-3-yl)-3-(5-fluoro-2-methoxyphenoxy)cyclobutanecarboxamide], 0.01 to 0.0794 µM; for `Cc1nnc(NC(=O)[C@H]2C[C@H](Oc3cccc4ccoc34)C2)s1` [Example 266, (trans)-3-(Benzofuran-7-yloxy)-N-(5-methyl-1,3,4-thiadiazol-2-yl)cyclobutanecarboxamide], 0.01 to 0.0794 µM. As for `O=C(N[C@H]1CC[C@H](N[C@@H](CO)C(F)(F)F)CC1)N1CC(Oc2cccc3scnc23)C1` [Example 53, 3-(Benzo[d]thiazol-4-yloxy)-N-((trans)-4-(((S)-1,1,1-trifluoro-3-hydroxypropan-2-yl)amino)cyclohexyl)azetidine-1-carboxamide], the figure is 0.01 to 0.0794 µM; as for `O=C(NC1CN(c2ccnc(Cl)n2)C1)[C@H]1C[C@H](Oc2cccc3scnc23)C1` [Example 69, (trans)-3-(Benzo[d]thiazol-4-yloxy)-N-(1-(2-chloropyrimidin-4-yl)azetidin-3-yl)cyclobutanecarboxamide], 0.01 to 0.0794 µM; as for `COC(=O)N1CCOC(CNC(=O)N2CC(Oc3cccc4scnc34)C2)C1` (racemic) [Example 94, Racemic Methyl 2-((3-(benzo[d]thiazol-4-yloxy)azetidine-1-carboxamido)methyl)morpholine-4-carboxylate], 0.1 to 1 µM. As for `CC(C)(O)CO[C@H]1CC[C@H](NC(=O)[C@H]2C[C@H](Oc3cccc4cccnc34)C2)CC1` [Example 220, (trans)-N-((trans)-4-(2-Hydroxy-2-methylpropoxy)cyclohexyl)-3-(quinolin-8-yloxy)cyclobutanecarboxamide], the figure is 0.1 to 1 µM; as for `COc1ccc(F)cc1O[C@H]1C[C@H](C(=O)N[C@H]2CC[C@H](OCC(C)(C)O)CC2)C1` [Example 169, (trans)-3-(5-Fluoro-2-methoxyphenoxy)-N-((trans)-4-(2-hydroxy-2-methylpropoxy)cyclohexyl)cyclobutanecarboxamide], 0.01 to 0.0794 µM.
